US20230085307A1, “PYRIDAZINONE COMPOUND AND HERBICIDE” (NISSAN CHEMICAL CORPORATION, priority 2019, published 2023)

Legend:
late watergrass [1] = experiment: Test Example 1: herbicidal activity, application before weed generation under submerged conditions (Table 16, symbol A); format: in vivo, late watergrass (Echinochloa oryzicola)
In short: (§1)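 Emulsion formulation, water-diluted to set dose, was put onto the flooded surface (4 cm depth, alluvial soil) the same day weeds were sown and 2.5-leaf rice transplanted. After 3 weeks at 25-30 °C under glass, each species was rated 0 (≤5% kill) to 5 (≥90% kill).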

Japanese bulrush = experiment: Test Example 1: herbicidal activity, application before weed generation under submerged conditions (Table 16, symbol B); format: in vivo, Japanese bulrush (Schoenoplectus juncoides)
In short: as §1

oval-leafed pondweed [2] = experiment: Test Example 1: herbicidal activity, application before weed generation under submerged conditions (Table 16, symbol C); format: in vivo, oval-leafed pondweed (Monochoria vaginalis)
In short: as §1

late watergrass [3] = experiment: Test Example 2: herbicidal activity, application during weed generation under submerged conditions (Table 17, symbol A); format: in vivo, late watergrass (Echinochloa oryzicola); details: application during weed generation, submerged conditions
In short: (§2)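 In this pot test, flooded alluvial soil (water depth 4 cm) holds all three species sown as a mixture. Once seedlings have one to two leaves, the compound's emulsion, thinned with water to the intended dose, is poured on the water; grading follows after three weeks on the earlier criteria.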

oval-leafed pondweed [4] = experiment: Test Example 2: herbicidal activity, application during weed generation under submerged conditions (Table 17, symbol C); format: in vivo, oval-leafed pondweed (Monochoria vaginalis); details: application during weed generation, submerged conditions
In short: as §2

barnyard grass = experiment: Test Example 3: herbicidal effect by foliage application, Wagner pot (Table 18, symbol H); format: in vivo, barnyard grass (Echinochloa crus-galli)
In short: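 Plants were sown in alluvial soil held under 0.1–0.5 cm standing water and grown 14 days in a greenhouse at 25–30 °C. An emulsifiable formulation, water-diluted to the set dose, was then sprayed onto the foliage, and effects were scored three weeks later using previously defined criteria.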

southern crabgrass [5] = experiment: Test Example 4: herbicidal effect by soil treatment (Table 19, symbol F); format: in vivo, southern crabgrass (Digitaria ciliaris)
In short: (§3)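 Pre-emergence style soil spray: seeds under ~1.5 cm sterilized diluvial soil received a uniform coat of emulsion diluted to the predetermined herbicide amount. Greenhouse 25–30° C; readout at week three on previously defined criteria.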

wild oat = experiment: Test Example 4: herbicidal effect by soil treatment (Table 19, symbol I); format: in vivo, wild oat (Avena fatua)
In short: as §3

windgrass = experiment: Test Example 4: herbicidal effect by soil treatment (Table 19, symbol L); format: in vivo, windgrass (Apera spica-venti)
In short: as §3

velvetleaf = experiment: Test Example 4: herbicidal effect by soil treatment (Table 19, symbol M); format: in vivo, velvetleaf (Abutilon theophrasti)
In short: as §3

redroot pigweed [6] = experiment: Test Example 4: herbicidal effect by soil treatment (Table 19, symbol N); format: in vivo, redroot pigweed (Amaranthus retroflexus)
In short: as §3

chickweed = experiment: Test Example 4: herbicidal effect by soil treatment (Table 19, symbol P); format: in vivo, common chickweed (Stellaria media)
In short: as §3

false cleavers = experiment: Test Example 4: herbicidal effect by soil treatment (Table 19, symbol Q); format: in vivo, false cleavers (Galium spurium)
In short: as §3

persian speedwell = experiment: Test Example 4: herbicidal effect by soil treatment (Table 19, symbol R); format: in vivo, Persian speedwell (Veronica persica)
In short: as §3

southern crabgrass [7] = experiment: Test Example 5: herbicidal effect by foliage application, plastic box (Table 20, symbol F); format: in vivo, southern crabgrass (Digitaria ciliaris); details: foliage application, three weeks after application
In short: (§4)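 Plants were sown into sterilized diluvial soil under about 1.5 cm cover and kept in a greenhouse at 25° C. to 30° C. Fourteen days on, foliage received an even spray of the diluted emulsion. Herbicidal or crop effect was judged three weeks afterwards.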

green foxtail = experiment: Test Example 5: herbicidal effect by foliage application, plastic box (Table 20, symbol G); format: in vivo, green foxtail (Setaria viridis); details: foliage application, three weeks after application
In short: as §4

redroot pigweed [8] = experiment: Test Example 5: herbicidal effect by foliage application, plastic box (Table 20, symbol N); format: in vivo, redroot pigweed (Amaranthus retroflexus); details: foliage application, three weeks after application
In short: as §4

[9] = amount of applied herbicide 320 g/ha
[10] = amount of applied herbicide 323 g/ha

SMILES	Herbicidal effect, A: late watergrass (late watergrass [1]; [9])	Herbicidal effect, B: Japanese bulrush (Japanese bulrush; [9])	Herbicidal effect, C: oval-leafed pondweed (oval-leafed pondweed [2]; [9])	herbicidal effect rating, A: late watergrass (late watergrass [3]; AAH 320 g/ha)	herbicidal effect rating, C: oval-leafed pondweed (oval-leafed pondweed [4]; AAH 320 g/ha)	herbicidal effect on barnyard grass (H) (barnyard grass; 320 g/ha)	F: southern crabgrass, herbicidal effect grade (southern crabgrass [5]; [9])	I: wild oat, herbicidal effect grade (wild oat; [9])	L: windgrass, herbicidal effect grade (windgrass; [9])	M: velvetleaf, herbicidal effect grade (velvetleaf; [9])	N: redroot pigweed, herbicidal effect grade (redroot pigweed [6]; [9])	P: chickweed, herbicidal effect grade (chickweed; [9])	Q: false cleavers, herbicidal effect grade (false cleavers; [9])	R: persian speedwell, herbicidal effect grade (persian speedwell; [9])	F: southern crabgrass, herbicidal effect grade (southern crabgrass [7]; 320 g/ha)	G: green foxtail, herbicidal effect grade (green foxtail; 320 g/ha)	N: redroot pigweed, herbicidal effect grade (redroot pigweed [8]; 320 g/ha)	also measured
CCCC(=O)Oc1c(C)nn(C)c(=O)c1-c1c(-c2ccc3c(c2)OCCO3)sc2cc(OC)ccc12 [3-083]	4 (Herbicidal rate of 70% or more and less than 90%)	4 (Herbicidal rate of 70% or more and less than 90%)	4 (Herbicidal rate of 70% or more and less than 90%)	2 (Herbicidal rate of 20% or more and less than 40%)	4 (Herbicidal rate of 70% or more and less than 90%)	4 (Herbicidal rate of 70% or more and less than 90%)	0 (Herbicidal rate of 5% or less (almost no effect))	0 (Herbicidal rate of 5% or less (almost no effect))	0 (Herbicidal rate of 5% or less (almost no effect))	0 (Herbicidal rate of 5% or less (almost no effect))	0 (Herbicidal rate of 5% or less (almost no effect))	5 (Herbicidal rate of 90% or more (almost completely withered))	4 (Herbicidal rate of 70% or more and less than 90%)	5 (Herbicidal rate of 90% or more (almost completely withered))	3 (Herbicidal rate of 40% or more and less than 70%)	0 (Herbicidal rate of 5% or less (almost no effect))	3 (Herbicidal rate of 40% or more and less than 70%)	
CCOc1ccc2c(-c3c(O)c(C)nn(C)c3=O)c(-c3ccccc3OC)sc2c1 [3-089]	5 (Herbicidal rate of 90% or more (almost completely withered))	5 (Herbicidal rate of 90% or more (almost completely withered))	5 (Herbicidal rate of 90% or more (almost completely withered))	4 (Herbicidal rate of 70% or more and less than 90%)	5 (Herbicidal rate of 90% or more (almost completely withered))	5 (Herbicidal rate of 90% or more (almost completely withered))	5 (Herbicidal rate of 90% or more (almost completely withered))	1 (Herbicidal rate of 5% or more and less than 20%)	4 (Herbicidal rate of 70% or more and less than 90%)	0 (Herbicidal rate of 5% or less (almost no effect))	5 (Herbicidal rate of 90% or more (almost completely withered))	4 (Herbicidal rate of 70% or more and less than 90%)	5 (Herbicidal rate of 90% or more (almost completely withered))	5 (Herbicidal rate of 90% or more (almost completely withered))	4 (Herbicidal rate of 70% or more and less than 90%)	4 (Herbicidal rate of 70% or more and less than 90%)	5 (Herbicidal rate of 90% or more (almost completely withered))	
CCOc1ccc2c(-c3c(O)c(C)nn(C)c3=O)c(-c3ccccc3OCC)sc2c1 [3-093]	5 (Herbicidal rate of 90% or more (almost completely withered))	5 (Herbicidal rate of 90% or more (almost completely withered))	5 (Herbicidal rate of 90% or more (almost completely withered))	3 (Herbicidal rate of 40% or more and less than 70%)	5 (Herbicidal rate of 90% or more (almost completely withered))	5 (Herbicidal rate of 90% or more (almost completely withered))	5 (Herbicidal rate of 90% or more (almost completely withered))	3 (Herbicidal rate of 40% or more and less than 70%)	4 (Herbicidal rate of 70% or more and less than 90%)	3 (Herbicidal rate of 40% or more and less than 70%)	5 (Herbicidal rate of 90% or more (almost completely withered))	4 (Herbicidal rate of 70% or more and less than 90%)	3 (Herbicidal rate of 40% or more and less than 70%)	5 (Herbicidal rate of 90% or more (almost completely withered))	5 (Herbicidal rate of 90% or more (almost completely withered))	5 (Herbicidal rate of 90% or more (almost completely withered))	5 (Herbicidal rate of 90% or more (almost completely withered))	
CCCC(=O)Oc1c(C)nn(C)c(=O)c1-c1c(-c2ccccc2OCC)sc2cc(OCC)ccc12 [3-094]																		Herbicidal effect, A: late watergrass (late watergrass [1]; [10]): 5 (Herbicidal rate of 90% or more (almost completely withered)); Herbicidal effect, B: Japanese bulrush (Japanese bulrush; [10]): 5 (Herbicidal rate of 90% or more (almost completely withered)); Herbicidal effect, C: oval-leafed pondweed (oval-leafed pondweed [2]; [10]): 5 (Herbicidal rate of 90% or more (almost completely withered)); herbicidal effect rating, A: late watergrass (late watergrass [3]; AAH 323 g/ha): 3 (Herbicidal rate of 40% or more and less than 70%); herbicidal effect rating, C: oval-leafed pondweed (oval-leafed pondweed [4]; AAH 323 g/ha): 4 (Herbicidal rate of 70% or more and less than 90%); herbicidal effect on barnyard grass (H) (barnyard grass; 323 g/ha): 5 (Herbicidal rate of 90% or more (almost completely withered)); F: southern crabgrass, herbicidal effect grade (southern crabgrass [5]; [10]): 3 (Herbicidal rate of 40% or more and less than 70%); I: wild oat, herbicidal effect grade (wild oat; [10]): 0 (Herbicidal rate of 5% or less (almost no effect)); L: windgrass, herbicidal effect grade (windgrass; [10]): 4 (Herbicidal rate of 70% or more and less than 90%); M: velvetleaf, herbicidal effect grade (velvetleaf; [10]): 0 (Herbicidal rate of 5% or less (almost no effect)); N: redroot pigweed, herbicidal effect grade (redroot pigweed [6]; [10]): 5 (Herbicidal rate of 90% or more (almost completely withered)); P: chickweed, herbicidal effect grade (chickweed; [10]): 4 (Herbicidal rate of 70% or more and less than 90%); Q: false cleavers, herbicidal effect grade (false cleavers; [10]): 4 (Herbicidal rate of 70% or more and less than 90%); R: persian speedwell, herbicidal effect grade (persian speedwell; [10]): 5 (Herbicidal rate of 90% or more (almost completely withered)); F: southern crabgrass, herbicidal effect grade (southern crabgrass [7]; 323 g/ha): 4 (Herbicidal rate of 70% or more and less than 90%); G: green foxtail, herbicidal effect grade (green foxtail; 323 g/ha): 4 (Herbicidal rate of 70% or more and less than 90%); N: redroot pigweed, herbicidal effect grade (redroot pigweed [8]; 323 g/ha): 5 (Herbicidal rate of 90% or more (almost completely withered))
